In patent US7879836B2, “Pharmaceutical composition comprising a 1-(3-chlorophenyl)-3-alkylpiperazine for treating appetite disorder” (Aziende Chimiche Riunite Angelini Francesco A.C.R.A.F. …, priority 2005, dated 2011):

Legend:
rat = conditions: Eur J Pharmacol, 1989, 164: 445-54; cited from earlier work
Male CD rats = assay: Anxiogenic activity in the rat (test of social interaction); format: in vivo; conditions: intraperitoneal; evaluated after 20 minutes during a 10-minute period; FIG. 1
Text: The anxiogenic activity of the compounds of the present invention was investigated by means of the social interaction test in the rat, which, as is known by a person skilled in the art, represents an experimental model that is predictive of the effects in humans.
Measurement of the time spent by pairs of animals in interacting with one another and exploring their surroundings (usually an arena consisting of a Perspex container) constitutes a model for verifying the action of substances that influence social behaviour.
Male CD rats weighing 150-250 g were used.
The animals were kept in a room with a controlled cycle of light and darkness (6:00-18:00). To promote acclimatization and eliminate responses induced by stress conditions, the rats were handled and were injected daily with the vehicle (water) for the four days preceding administration of the test compounds.
On the fifth day the animals were treated intraperitoneally with the test compounds and, after 20 minutes, the interaction time (seconds) spent by the animals during a 10-minute period was evaluated.

food-deprived rats = assay: Hypophagia-inducing activity in food-deprived rats; format: in vivo, rat; conditions: 10 mg/kg orally; rats deprived of food for 24 h; one hour after treatment; FIGS. 2A, 2B
Text: Verification of the consumption of food in food-deprived rats represents a condition that reproduces the complex system regulating the sensation of hunger and the intake of food in humans. Fasting in fact introduces many physiological changes that can lead to activation of the circuits that are specifically dedicated to the control of food intake. As is well known, the use of this model constitutes a valid tool for identifying substances capable of interfering with appetite disorders and can be used in particular for monitoring conditions such as hyperphagia, bulimia and obesity.
Male CD rats weighing 300-350 g were used.
The animals were kept in a room with a controlled cycle of light and darkness (6:00-18:00). Before the test, which was carried out at 9:30 corresponding to daytime, the animals were deprived of food for 24 h. At the end of the fasting period, the animals were treated orally with the test compounds (10 mg/kg) in an aqueous vehicle and, immediately after treatment, a pre-weighed amount of food was made available. One hour after treatment, the food consumption was evaluated by weighing the amount of food remaining. The control animals were treated orally with the vehicle (water) used for administering the test compounds.

Compound | anxiogenic effects (social interaction time) (rat) | interaction time relative to that of the control animals (Male CD rats) | amount of food consumed, lower than that consumed by the control animals (food-deprived rats)
Clc1cccc(N2CCNCC2)c1 [mCPP, m-chlorophenyl-piperazine] | reduce social interaction time | approx. 50% | –
CC1CN(c2cccc(Cl)c2)CCN1 (racemic) [Compound 1] | – | – | approx. 28%
C[C@H]1CN(c2cccc(Cl)c2)CCN1 [Compound 2] | – | – | 75-80%
FC(F)(F)c1cccc(N2CCNCC2)c1 [TFMPP, m-trifluoromethyl phenylpiperazine] | reduce social interaction time | – | –
C[C@@H]1CN(c2cccc(Cl)c2)CCN1 [Compound 3] | – | – | ~20%
